Results: patent US9636286B2, “Antimicrobial cleanser” (Coloplast A/S, priority 2013, dated 2017)

How the values were obtained:
[1] = test system: reconstructed human epidermis (RhE) model; set-up: unit not given beside the values; conditions: known irritants and non-irritants given as examples of the scale; cited from earlier work
[2] = test system: reconstructed human epidermis (RhE) model; assay: In vitro irritancy, EpiDerm MTT ET50 Protocol (EPI-200), Example 1; assay type: cell-based
Protocol: In vitro irritancy was tested using a commercially available kit “EpiDerm MTT ET50 Protocol (EPI-200)”, available from MatTek Corporation (Ashland, Mass.). The test kit is used as a validated replacement for in vivo irritation testing otherwise known as “Draize testing”, in the EU (OECD TG439). Our method of data analysis and outcome prediction is altered slightly to determine relative differences in irritation potential between experimental neat materials tested within the same kit.
The test consists of a topical exposure of the neat experimental material to a reconstructed human epidermis (RhE) model followed by a cell viability assay. The cell viability test method is based on the enzymatic conversion of mitochondrial dehydrogenase with MTT [(3-4,5-dimethyl thiazole-2-yl) 2,5-diphenyltetrazolium bromide], resulting in a blue formazan salt, which is than extracted from the tissues and quantitated. […]
EpiDerm tissues are conditioned overnight at 37±2° C., 5% CO2, to relieve stress from the shipping process. […] After the three hour incubation in MTT, the formazan salt is extracted using 2.0 mL of isopropanol and the optical density (OD) of each sample is measured at 570 nm. Relative cell viability is calculated as a % of the mean of the negative control tissue. Dose-response curves are constructed for each sample and an ET50 value is calculated. […]

Molecule: CCCCCCCCCCCCOS(=O)(=O)[O-].[Na+] [1% SDS, SDS]
- ET50 (Irritancy Scale, example substances) [1]: 0.5-4

Molecule: O=[N+]([O-])O [Nitric Acid]
- ET50 (Irritancy Scale, example substances) [1]: <0.5

Molecule: Triton X-100 [1.0% Triton X-100]
- ET50 (Irritancy Scale, example substances) [1]: 4-12
- Expected In vivo Irritancy Score ([2]; from ET50 by Irritancy Scale): very mild (12-24)
- ET50 Value ([2]; neat material, exposure 1, 4 or 24 hrs, time to reduce cell viability to 50%): 12.69 h
